Experimental data from patent EP4813979A1, “COMPOUND FOR EGFR PROTEIN DEGRADATION AND USE THEREOF” (TYK Medicines, Inc., priority 2023, dated 2025).

Key:
[1] = Pharmacokinetic tests in male SD rats; type: in vivo; conditions: oral gavage (po), 10 mg/kg, plasma; for AUC(0-inf) / AUC(0-t) / Cmax / MRT last / Tmax: rat
Method in brief: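 Fasted male SD rats (n=3) dosed 10 mg/kg by oral gavage as 1 mg/mL solution in 10% DMSO/90% 0.5% MC. Tail-vein EDTA plasma sampled 0.5–24 h, parent drug quantified by LC-MS/MS; AUC, T1/2, Cmax, Tmax by non-compartmental analysis.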

[2] = Pharmacokinetic test of CD-1 mice; type: in vivo; parameters: AUC(0-t) / AUC(0-inf): concentration or dose not given beside the values; conditions: male CD-1 mice, single oral gavage (PO), plasma
Method: Plasma was collected from male CD-1 mice after a single gavage administration of the test substance. The plasma was then analyzed to calculate pharmacokinetic parameters.
The solvent is 5% DMSO + 10% Solutol HS-15 + 85% Saline.
Formulation preparation process: Accurately weighed the compound powder, added appropriate volumes of DMSO, Solutol and physiological saline in sequence, and vortexed sonicate at each step to finally form a homogeneous formulation solution.
Experimental animals were housed in the SPF-grade animal facility of Suzhou Xihua New Drug Development Co., Ltd. (License No.: SYXK(Su)2021-0019). Animals were fed normally for at least 3 days after purchase before the experiment, and each mouse was marked with a tail tag. Animals in the oral administration group were fasted overnight the day before administration, and were resumed feeding 4 hours later, with free access to water. Table 4. Sources and Number of Experimental Animals […]
Before administration, checked the state of the administration formulation and ensured its homogeneity by vortexing, stirring or shaking. Calculated the theoretical administration volume for each CD-1 mouse in each group according to the following formula. Theoretical administration volume (mL); = (Dose (mg⋅kg^−1))/(formulation concentration (mg⋅mL^−1)) × animal body weight (kg) [formula]
Table 5 Sample Collection Information
The collected blood was placed in test tubes containing the anticoagulant EDTA-K2 (15 % EDTA-K2 solution), stored on moist ice, and centrifuged within 45 min (1,500 g, 2-8 °C, 10 min). Plasma was then collected. The plasma was stored in pre-chilled centrifuge tubes, flash-frozen on dry ice, and subsequently stored in an ultra-low temperature freezer at -60 °C or lower until shipment.
A quantitative detection method for the analyte was established using Shimadzu liquid chromatography and Triple Quad™ 6500+AB mass spectrometry. The concentration of the parent drug in plasma was analyzed. The analytical results were controlled for variation using quality control samples, with the accuracy of the quality control samples expected to be between 80% and 120%.
The main pharmacokinetic parameters were calculated using a non-compartmental model in Winnonlin Phoenix software. These parameters included the area under the curve (AUC(0-t) and AUC(0-∞)), elimination half-life (T1/2), maximum plasma concentration (Cmax ), and time to reach maximum plasma concentration (Tmax).

Row | SMILES | HL [1] [h] | AUC(0-inf) [1] [ng·h/mL] | AUC(0-t) [1] [ng·h/mL] | Cmax [1] [ng/mL] | MRT last [1] [h] | Tmax [1] [h] | HL_ [2] [h] | AUC(0-inf) ([2]; mouse) [ng·h/mL] | AUC(0-t) ([2]; mouse) [ng·h/mL] | Cmax ([2]; mouse) [ng/mL] | MRT last ([2]; mouse) [h] | Tmax ([2]; mouse) [h]
1 | COc1cc(N2CCC(CN3CCN(c4ccc5c(c4)C(=O)N(C4CCC(=O)NC4=O)C5=O)CC3)CC2)c(-c2cnn(C)c2)cc1Nc1ncc(Br)c(Nc2ccc(C3CC3)cc2P(C)(C)=O)n1 (stereo not drawn) [DZL-1, reference compound] | 3.08 | 8460 | 8070 | 699 | 6.11 | 4 | – | – | – | – | – | –
2 | CCc1cc(Nc2ncc(Cl)c(Nc3ccccc3C(=O)NC)n2)c(OC)cc1N1CCN(C(=O)CN2CCC(c3cc4c(cc3F)c(N3CCC(=O)NC3=O)nn4C)C(F)(F)C2)CC1 (stereo not drawn) [TA-003] | 3.22 | 3800 | 3770 | 441 | 5.63 | 2 | 2.45 | 20700 | 20600 | 3410 | 5.11 | 4
3 | CCc1cc(Nc2ncc(Cl)c(Nc3ccccc3P(C)(C)=O)n2)c(OC)cc1N1CC2(CCN(C(=O)CN3CCC(c4cc5c(cc4F)c(N4CCC(=O)NC4=O)nn5C)C(F)(F)C3)CC2)C1 (stereo not drawn) [TA-023] | 3.99 | 3980 | 3920 | 580 | 5.1 | 2 | – | – | – | – | – | –
4 | CCc1cc(Nc2ncc(Cl)c(Nc3ccccc3P(C)(C)=O)n2)c(OC)cc1N1CCN(C(=O)CN2CCC(c3cc4c(cc3F)c(N3CCC(=O)NC3=O)nn4C)C(F)(F)C2)CC1 (stereo not drawn) [TC-157] | 2.66 | 5800 | 7530 | 768 | 5.52 | 3.33 | – | – | – | – | – | –
5 | CCc1cc(Nc2ncc(Cl)c(Nc3ccccc3P(C)(C)=O)n2)c(OC)cc1N1CCN(C(=O)CN2CCC(c3cc4c(cc3F)c(N3CCC(=O)NC3=O)nn4C)CC2)CC1 [TC-213] | 3.48 | 8150 | 8070 | 742 | 6.22 | 4 | – | – | – | – | – | –
